Assay results reported in the supplement of paper PMC10307832.

Key:
Assay in all cases: relative viability (nuclei count vs DMSO), 5 days (fraction); higher = more cells survive
BEN = tested on: BEN
In short: (§1)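 After 5 days of treatment, lung cancer cells in 1536-well plates were fixed and stained in a single step (final 0.05% Triton X-100, 1% formaldehyde, 1 ug/ml Hoechst) and their nuclei counted on 4× images. Treatment had been applied by pin tool the day after seeding as one drug alone or as a fixed anchor-drug dose with five library-drug doses (not always all listed) in √10 steps. Relative viability is the nuclei count of treated wells divided by that of vehicle wells, and values are medians of duplicate plates.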

ChaGo-K-1 = tested on: ChaGo-K-1
In short: as §1

HCC-78 = tested on: HCC-78
In short: as §1

LC-2-ad = tested on: LC-2-ad
In short: as §1

LCLC-97TM1 = tested on: LCLC-97TM1
In short: as §1

LK-2 = tested on: LK-2
In short: as §1

LU99A = tested on: LU99A
In short: as §1

LXF-289 = tested on: LXF-289
In short: as §1

NCI-H1355 = tested on: NCI-H1355
In short: as §1

NCI-H1651 = tested on: NCI-H1651
In short: as §1

NCI-H1666 = tested on: NCI-H1666
In short: as §1

NCI-H1944 = tested on: NCI-H1944
In short: as §1

NCI-H1975 = tested on: NCI-H1975
In short: as §1

NCI-H2087 = tested on: NCI-H2087
In short: as §1

NCI-H2342 = tested on: NCI-H2342
In short: as §1

NCI-H358 = tested on: NCI-H358
In short: as §1

NCI-H596 = tested on: NCI-H596
In short: as §1

NCI-H650 = tested on: NCI-H650
In short: as §1

NCI-H661 = tested on: NCI-H661
In short: as §1

NCI-H838 = tested on: NCI-H838
In short: as §1

PC-3 [JPC-3] = tested on: PC-3 [JPC-3]
In short: as §1

SK-MES-1 = tested on: SK-MES-1
In short: as §1

In the case of `O=c1cc(N2CCOCC2)oc2c(-c3cccc4c3sc3ccccc34)cccc12` + COc1cccc2cc(-c3nc([C@H]4CC[C@H](C(=O)O)CC4)n4ncnc(N)c34)[nH]c12 [OSI-027] (partner 0.5 µM), the relative viability (BEN; first compound 0.01 µM) is reported as 0.304, the relative viability (BEN; first compound 0.03162 µM) is reported as 0.309 and the relative viability (BEN; first compound 0.1 µM) is reported as 0.302. It also gave a relative viability (BEN; first compound 0.3162 µM) of 0.323, a relative viability (BEN; first compound 1 µM) of 0.311 and a relative viability (ChaGo-K-1; first compound 0.01 µM) of 0.488. The relative viability (ChaGo-K-1; first compound 0.03162 µM) was 0.681, the relative viability (ChaGo-K-1; first compound 0.1 µM) was 0.363 and the relative viability (ChaGo-K-1; first compound 0.3162 µM) was 0.706. For the same compound, the relative viability (ChaGo-K-1; first compound 1 µM) was 0.628, the relative viability (HCC-78; first compound 0.01 µM) was 0.369 and the relative viability (HCC-78; first compound 0.03162 µM) was 0.362. It also gave a relative viability (HCC-78; first compound 0.1 µM) of 0.297, a relative viability (HCC-78; first compound 0.3162 µM) of 0.347 and a relative viability (HCC-78; first compound 1 µM) of 0.342. It also gave a relative viability (LC-2-ad; first compound 0.01 µM) of 0.903, a relative viability (LC-2-ad; first compound 0.03162 µM) of 0.993 and a relative viability (LC-2-ad; first compound 0.1 µM) of 0.877. For the same compound, the relative viability (LC-2-ad; first compound 0.3162 µM) was 0.915, the relative viability (LC-2-ad; first compound 1 µM) was 0.785 and the relative viability (LCLC-97TM1; first compound 0.01 µM) was 0.583. The relative viability (LCLC-97TM1; first compound 0.03162 µM) was 0.684, the relative viability (LCLC-97TM1; first compound 0.1 µM) was 0.491 and the relative viability (LCLC-97TM1; first compound 0.3162 µM) was 0.612. For the same compound, the relative viability (LCLC-97TM1; first compound 1 µM) was 0.555, the relative viability (LK-2; first compound 0.01 µM) was 0.24 and the relative viability (LK-2; first compound 0.03162 µM) was 0.361. It also gave a relative viability (LK-2; first compound 0.1 µM) of 0.181, a relative viability (LK-2; first compound 0.3162 µM) of 0.219 and a relative viability (LK-2; first compound 1 µM) of 0.212. It also gave a relative viability (LU99A; first compound 0.01 µM) of 0.277, a relative viability (LU99A; first compound 0.03162 µM) of 0.337 and a relative viability (LU99A; first compound 0.1 µM) of 0.323. For the same compound, the relative viability (LU99A; first compound 0.3162 µM) was 0.311, the relative viability (LU99A; first compound 1 µM) was 0.347 and the relative viability (LXF-289; first compound 0.01 µM) was 0.807. The relative viability (LXF-289; first compound 0.03162 µM) was 0.778, the relative viability (LXF-289; first compound 0.1 µM) was 0.755 and the relative viability (LXF-289; first compound 0.3162 µM) was 0.825. For the same compound, the relative viability (LXF-289; first compound 1 µM) was 0.81, the relative viability (NCI-H1355; first compound 0.01 µM) was 0.474 and the relative viability (NCI-H1355; first compound 0.03162 µM) was 0.469. It also gave a relative viability (NCI-H1355; first compound 0.1 µM) of 0.265, a relative viability (NCI-H1355; first compound 0.3162 µM) of 0.452 and a relative viability (NCI-H1355; first compound 1 µM) of 0.394. It also gave a relative viability (NCI-H1651; first compound 0.01 µM) of 0.593, a relative viability (NCI-H1651; first compound 0.03162 µM) of 0.704 and a relative viability (NCI-H1651; first compound 0.1 µM) of 0.668. It also gave a relative viability (NCI-H1651; first compound 0.3162 µM) of 0.654, a relative viability (NCI-H1651; first compound 1 µM) of 0.636 and a relative viability (NCI-H1666; first compound 0.01 µM) of 0.864. It also gave a relative viability (NCI-H1666; first compound 0.03162 µM) of 0.922, a relative viability (NCI-H1666; first compound 0.1 µM) of 0.847 and a relative viability (NCI-H1666; first compound 0.3162 µM) of 0.839. For the same compound, the relative viability (NCI-H1666; first compound 1 µM) was 0.79, the relative viability (NCI-H1944; first compound 0.01 µM) was 0.443 and the relative viability (NCI-H1944; first compound 0.03162 µM) was 0.436. It also gave a relative viability (NCI-H1944; first compound 0.1 µM) of 0.429, a relative viability (NCI-H1944; first compound 0.3162 µM) of 0.44 and a relative viability (NCI-H1944; first compound 1 µM) of 0.391. The relative viability (NCI-H1975; first compound 0.01 µM) was 0.718, the relative viability (NCI-H1975; first compound 0.03162 µM) was 0.73 and the relative viability (NCI-H1975; first compound 0.1 µM) was 0.792. It also gave a relative viability (NCI-H1975; first compound 0.3162 µM) of 0.874, a relative viability (NCI-H1975; first compound 1 µM) of 0.752 and a relative viability (NCI-H2087; first compound 0.01 µM) of 0.569. It also gave a relative viability (NCI-H2087; first compound 0.03162 µM) of 0.637, a relative viability (NCI-H2087; first compound 0.1 µM) of 0.544 and a relative viability (NCI-H2087; first compound 0.3162 µM) of 0.416. It also gave a relative viability (NCI-H2087; first compound 1 µM) of 0.599, a relative viability (NCI-H2342; first compound 0.01 µM) of 0.641 and a relative viability (NCI-H2342; first compound 0.03162 µM) of 0.591. For the same compound, the relative viability (NCI-H2342; first compound 0.1 µM) was 0.652, the relative viability (NCI-H2342; first compound 0.3162 µM) was 0.715 and the relative viability (NCI-H2342; first compound 1 µM) was 0.533. It also gave a relative viability (NCI-H358; first compound 0.01 µM) of 0.83, a relative viability (NCI-H358; first compound 0.03162 µM) of 0.878 and a relative viability (NCI-H358; first compound 0.1 µM) of 0.881. The relative viability (NCI-H358; first compound 0.3162 µM) was 0.844, the relative viability (NCI-H358; first compound 1 µM) was 0.781 and the relative viability (NCI-H596; first compound 0.01 µM) was 0.738. It also gave a relative viability (NCI-H596; first compound 0.03162 µM) of 0.747, a relative viability (NCI-H596; first compound 0.1 µM) of 0.493 and a relative viability (NCI-H596; first compound 0.3162 µM) of 0.828. It also gave a relative viability (NCI-H596; first compound 1 µM) of 0.722, a relative viability (NCI-H650; first compound 0.03162 µM) of 0.591 and a relative viability (NCI-H650; first compound 0.1 µM) of 0.391. For the same compound, the relative viability (NCI-H650; first compound 0.3162 µM) was 0.598, the relative viability (NCI-H650; first compound 1 µM) was 0.493 and the relative viability (NCI-H661; first compound 0.01 µM) was 0.692. The relative viability (NCI-H661; first compound 0.03162 µM) was 0.738, the relative viability (NCI-H661; first compound 0.1 µM) was 0.772 and the relative viability (NCI-H661; first compound 0.3162 µM) was 0.756. The relative viability (NCI-H661; first compound 1 µM) was 0.708, the relative viability (NCI-H838; first compound 0.01 µM) was 0.401 and the relative viability (NCI-H838; first compound 0.03162 µM) was 0.397. For the same compound, the relative viability (NCI-H838; first compound 0.1 µM) was 0.389, the relative viability (NCI-H838; first compound 0.3162 µM) was 0.42 and the relative viability (NCI-H838; first compound 1 µM) was 0.374. It also gave a relative viability (PC-3 [JPC-3]; first compound 0.01 µM) of 0.762, a relative viability (PC-3 [JPC-3]; first compound 0.03162 µM) of 0.768 and a relative viability (PC-3 [JPC-3]; first compound 0.1 µM) of 0.644. For the same compound, the relative viability (PC-3 [JPC-3]; first compound 0.3162 µM) was 0.738, the relative viability (PC-3 [JPC-3]; first compound 1 µM) was 0.825 and the relative viability (SK-MES-1; first compound 0.01 µM) was 0.613. The relative viability (SK-MES-1; first compound 0.03162 µM) was 0.685, the relative viability (SK-MES-1; first compound 0.1 µM) was 0.531 and the relative viability (SK-MES-1; first compound 0.3162 µM) was 0.633. The relative viability (SK-MES-1; first compound 1 µM) was 0.579.
